Measured values taken from patent publication US20230203059A1, “MACROCYCLIC JAK INHIBITOR AND USES THEREOF” (Biopolar Hongye (Guangdong) Pharmaceutical Co. Ltd., priority 2020, published 2023).

Experiments:
Assay type in all cases: biochemical
JAK1 = JAK1 (Homo sapiens, UniProt P23458); assay: JAK kinase activity, homogeneous time-resolved fluorescence (JAK1 reaction system); details: ATP 2 μM, JAK1 protein 0.2 ng/μL; read-out: JAK 1 activity
Summary of the method: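 HTRF assay: JAK1 (0.2 ng/μL) with 2 μM ATP and substrate in 50 mM Hepes pH 7.0, 5 mM MgCl2, 1 mM DTT, 1 h. Phospho-substrate antibody/XL-615 detection with EDTA; 665/615 nm ratio, excitation 320 nm. IC50 from Hill-type fit against no-enzyme and no-compound controls.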

JAK2 = JAK2 (Homo sapiens, UniProt O60674); assay: JAK kinase activity, homogeneous time-resolved fluorescence (JAK2 reaction system); details: ATP 2 μM, JAK2 protein 0.01 ng/μL
Chain of JAK2 (O60674 whole entry): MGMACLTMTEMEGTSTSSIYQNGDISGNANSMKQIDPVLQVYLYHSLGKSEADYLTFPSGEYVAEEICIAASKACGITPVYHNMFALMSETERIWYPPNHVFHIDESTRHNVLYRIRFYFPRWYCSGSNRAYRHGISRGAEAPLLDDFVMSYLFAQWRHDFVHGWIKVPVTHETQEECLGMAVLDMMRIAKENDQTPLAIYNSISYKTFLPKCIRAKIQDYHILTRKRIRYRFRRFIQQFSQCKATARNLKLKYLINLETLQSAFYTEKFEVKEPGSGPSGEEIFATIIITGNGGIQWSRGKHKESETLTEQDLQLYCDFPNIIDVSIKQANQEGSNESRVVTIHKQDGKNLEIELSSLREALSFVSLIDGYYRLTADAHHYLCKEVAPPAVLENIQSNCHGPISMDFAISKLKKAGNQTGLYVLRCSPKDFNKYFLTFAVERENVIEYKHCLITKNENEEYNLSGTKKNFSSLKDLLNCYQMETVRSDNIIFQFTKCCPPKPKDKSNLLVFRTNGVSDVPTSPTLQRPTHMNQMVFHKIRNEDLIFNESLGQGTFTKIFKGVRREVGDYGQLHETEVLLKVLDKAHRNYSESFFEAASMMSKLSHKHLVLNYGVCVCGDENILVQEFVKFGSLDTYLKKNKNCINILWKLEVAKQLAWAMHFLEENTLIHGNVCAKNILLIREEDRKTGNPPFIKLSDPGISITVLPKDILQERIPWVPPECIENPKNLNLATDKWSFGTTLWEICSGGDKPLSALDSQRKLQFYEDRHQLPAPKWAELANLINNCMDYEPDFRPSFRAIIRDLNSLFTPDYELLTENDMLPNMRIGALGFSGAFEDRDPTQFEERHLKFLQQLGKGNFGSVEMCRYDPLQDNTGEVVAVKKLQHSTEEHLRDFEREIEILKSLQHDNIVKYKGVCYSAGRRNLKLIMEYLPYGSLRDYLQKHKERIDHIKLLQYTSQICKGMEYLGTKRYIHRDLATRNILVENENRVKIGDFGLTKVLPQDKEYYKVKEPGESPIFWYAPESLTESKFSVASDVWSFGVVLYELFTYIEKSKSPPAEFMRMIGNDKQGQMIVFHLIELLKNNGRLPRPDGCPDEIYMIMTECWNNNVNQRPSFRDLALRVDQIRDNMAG
Summary of the method: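 IC50 derived by Hill-equation fit of the 665/615 nm time-resolved fluorescence ratio after EDTA-containing detection mix with anti-phosphosubstrate antibody. Preceding 1 h reaction contained 2 μM ATP, 0.01 ng/μL JAK2, substrate, 50 mM Hepes pH 7.0, 5 mM MgCl2, 1 mM DTT.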

JAK3 = target: T1, JAK3 (Homo sapiens, UniProt P52333); assay: JAK kinase activity, homogeneous time-resolved fluorescence (JAK3 reaction system); details: ATP 2 μM, JAK3 protein 0.04 ng/μL; read-out: JAK 3 activity
T1 sequence (P52333 1-1124): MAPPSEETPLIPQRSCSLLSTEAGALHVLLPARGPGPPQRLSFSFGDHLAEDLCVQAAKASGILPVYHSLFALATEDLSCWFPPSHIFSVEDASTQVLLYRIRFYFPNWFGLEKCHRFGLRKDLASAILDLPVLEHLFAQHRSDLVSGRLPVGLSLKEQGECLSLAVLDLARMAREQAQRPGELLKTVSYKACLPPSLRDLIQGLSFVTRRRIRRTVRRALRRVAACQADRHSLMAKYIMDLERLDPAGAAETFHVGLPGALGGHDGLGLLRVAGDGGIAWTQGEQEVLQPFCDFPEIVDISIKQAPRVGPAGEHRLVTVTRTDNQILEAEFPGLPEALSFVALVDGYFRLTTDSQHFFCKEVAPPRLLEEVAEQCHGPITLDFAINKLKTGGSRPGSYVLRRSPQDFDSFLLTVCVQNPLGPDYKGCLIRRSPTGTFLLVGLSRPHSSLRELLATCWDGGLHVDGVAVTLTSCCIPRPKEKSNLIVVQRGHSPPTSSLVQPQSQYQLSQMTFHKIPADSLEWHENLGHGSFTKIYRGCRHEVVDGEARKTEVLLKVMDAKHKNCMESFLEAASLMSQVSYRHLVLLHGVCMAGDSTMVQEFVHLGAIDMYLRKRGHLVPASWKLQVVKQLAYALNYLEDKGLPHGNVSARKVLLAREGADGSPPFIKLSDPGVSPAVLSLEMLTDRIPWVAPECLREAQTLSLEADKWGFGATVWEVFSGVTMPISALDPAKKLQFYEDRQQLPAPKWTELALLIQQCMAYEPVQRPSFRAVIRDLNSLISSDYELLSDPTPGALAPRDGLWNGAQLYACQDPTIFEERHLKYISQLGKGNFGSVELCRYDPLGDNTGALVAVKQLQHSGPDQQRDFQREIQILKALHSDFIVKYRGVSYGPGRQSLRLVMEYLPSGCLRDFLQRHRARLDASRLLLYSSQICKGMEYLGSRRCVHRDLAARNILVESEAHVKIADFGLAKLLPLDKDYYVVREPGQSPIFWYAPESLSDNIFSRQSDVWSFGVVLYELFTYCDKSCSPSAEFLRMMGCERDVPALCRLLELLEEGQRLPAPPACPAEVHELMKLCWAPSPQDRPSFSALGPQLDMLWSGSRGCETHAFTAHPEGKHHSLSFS

TYK2 = TYK2 (Homo sapiens, UniProt P29597); assay: JAK kinase activity, homogeneous time-resolved fluorescence (TYK2 reaction system); details: ATP 2 μM, TYK2 protein 0.2 ng/μL; read-out: TYK 2 activity
Chain of TYK2 (P29597 whole entry): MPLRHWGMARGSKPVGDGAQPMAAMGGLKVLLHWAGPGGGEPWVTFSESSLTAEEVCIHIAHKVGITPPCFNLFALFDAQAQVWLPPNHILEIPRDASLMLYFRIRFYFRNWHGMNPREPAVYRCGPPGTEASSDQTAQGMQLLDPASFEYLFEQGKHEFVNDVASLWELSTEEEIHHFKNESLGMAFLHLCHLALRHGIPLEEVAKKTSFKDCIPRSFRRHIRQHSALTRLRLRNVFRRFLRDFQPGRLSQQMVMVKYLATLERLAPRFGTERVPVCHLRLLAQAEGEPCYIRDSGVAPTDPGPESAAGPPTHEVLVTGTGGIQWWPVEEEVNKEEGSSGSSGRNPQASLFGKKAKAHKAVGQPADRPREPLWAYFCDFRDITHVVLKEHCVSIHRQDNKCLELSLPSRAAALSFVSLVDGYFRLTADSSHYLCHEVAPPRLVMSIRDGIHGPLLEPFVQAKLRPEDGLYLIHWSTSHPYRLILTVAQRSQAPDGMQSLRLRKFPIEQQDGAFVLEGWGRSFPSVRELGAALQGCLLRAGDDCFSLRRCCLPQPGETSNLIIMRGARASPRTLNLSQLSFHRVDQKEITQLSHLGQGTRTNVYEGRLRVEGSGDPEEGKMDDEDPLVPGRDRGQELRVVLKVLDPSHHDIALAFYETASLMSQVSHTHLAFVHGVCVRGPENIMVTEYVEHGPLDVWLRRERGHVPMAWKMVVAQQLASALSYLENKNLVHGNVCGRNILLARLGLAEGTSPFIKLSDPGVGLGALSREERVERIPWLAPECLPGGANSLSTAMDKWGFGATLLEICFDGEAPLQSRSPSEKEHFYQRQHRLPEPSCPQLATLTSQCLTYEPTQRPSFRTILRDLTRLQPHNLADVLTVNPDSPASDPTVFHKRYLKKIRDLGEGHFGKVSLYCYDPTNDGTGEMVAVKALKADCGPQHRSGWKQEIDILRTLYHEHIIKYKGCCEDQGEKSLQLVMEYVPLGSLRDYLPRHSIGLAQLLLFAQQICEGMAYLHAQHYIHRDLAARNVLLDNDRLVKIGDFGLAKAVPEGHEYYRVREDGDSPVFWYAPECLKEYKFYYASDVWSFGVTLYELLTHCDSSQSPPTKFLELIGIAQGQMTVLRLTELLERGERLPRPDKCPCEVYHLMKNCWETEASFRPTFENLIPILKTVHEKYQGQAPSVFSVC
Summary of the method: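 Activity read as the 665 nm/615 nm ratio after adding EDTA-containing detection mix with anti-phospho-substrate antibody and XL-615. Beforehand, 0.2 ng/μL TYK2, 2 μM ATP, substrate and compound reacted 1 h in pH 7.0 Hepes buffer with MgCl2 and DTT. IC50 fitted with Hill-slope equation.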

Chain of JAK1 (P23458 whole entry): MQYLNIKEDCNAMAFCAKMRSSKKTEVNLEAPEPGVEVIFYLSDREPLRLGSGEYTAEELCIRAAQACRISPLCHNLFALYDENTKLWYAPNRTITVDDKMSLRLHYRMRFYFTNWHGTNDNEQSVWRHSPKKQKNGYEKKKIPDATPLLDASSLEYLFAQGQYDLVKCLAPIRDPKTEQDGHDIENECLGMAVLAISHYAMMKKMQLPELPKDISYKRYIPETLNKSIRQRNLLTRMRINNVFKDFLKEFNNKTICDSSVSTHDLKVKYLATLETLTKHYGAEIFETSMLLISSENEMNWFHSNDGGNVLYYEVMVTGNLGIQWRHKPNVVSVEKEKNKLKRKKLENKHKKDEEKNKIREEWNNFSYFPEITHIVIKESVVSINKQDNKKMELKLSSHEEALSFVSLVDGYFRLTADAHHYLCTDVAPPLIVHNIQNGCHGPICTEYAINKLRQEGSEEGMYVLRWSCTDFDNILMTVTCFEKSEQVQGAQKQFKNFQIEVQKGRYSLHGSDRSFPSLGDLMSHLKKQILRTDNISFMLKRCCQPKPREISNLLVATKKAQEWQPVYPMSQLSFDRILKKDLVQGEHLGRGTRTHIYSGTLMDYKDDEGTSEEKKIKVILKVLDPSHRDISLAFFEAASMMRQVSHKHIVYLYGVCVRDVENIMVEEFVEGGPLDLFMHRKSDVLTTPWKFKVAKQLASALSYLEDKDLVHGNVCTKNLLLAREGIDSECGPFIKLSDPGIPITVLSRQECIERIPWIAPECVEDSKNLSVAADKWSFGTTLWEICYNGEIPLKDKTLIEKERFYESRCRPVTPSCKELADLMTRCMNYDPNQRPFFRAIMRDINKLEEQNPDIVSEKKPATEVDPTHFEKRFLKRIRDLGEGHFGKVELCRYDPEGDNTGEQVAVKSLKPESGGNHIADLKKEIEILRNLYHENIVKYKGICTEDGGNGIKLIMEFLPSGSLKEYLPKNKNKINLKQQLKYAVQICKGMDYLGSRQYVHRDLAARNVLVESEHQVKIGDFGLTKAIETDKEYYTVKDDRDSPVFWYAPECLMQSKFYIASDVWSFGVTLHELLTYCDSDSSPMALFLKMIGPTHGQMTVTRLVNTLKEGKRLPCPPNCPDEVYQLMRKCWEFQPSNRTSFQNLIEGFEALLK

Row | IC50 (JAK1) [µM] | IC50 (JAK2) [µM] | IC50 (JAK3) [µM] | IC50 (TYK2) [µM] | Structure (SMILES)
1 | 1 to 10 | 0.101 to 1 | < 0.01 | > 10 | Nc1cc2ccc1-c1ccnc(n1)Nc1ccc(OCc3ccccc3F)c(c1)COCCCCNC2=O [Example 153, 1^2-amino-4^4-((2-fluorobenzyl)oxy)-6-oxa-3,11-diaza-2(4,2)-pyrimidi-na-1(1,4),4(1,3)-dibenzenacyclo-dodecaphan-12-one]
2 | 1 to 10 | 1 to 10 | 0.011 to 0.1 | > 10 | Nc1cc2ccc1-c1ccnc(n1)Nc1cc(F)c(F)c(c1)COCCCCNC2=O [Example 94, 1^2-amino-4^4,4^5-difluoro-6-oxa-3,11-diaza-2(4,2)-pyrimidina-1(1,4),4(1,3)-dibenzenacyclododecaphan-12-one]
3 | > 10 | > 10 | 1 to 10 | > 10 | O=C1NCCCCOCc2cc(ccc2OCc2cccc3c2CCO3)Nc2nccc(n2)-c2ccc1cc2[N+](=O)[O-] [Example 150, 4^4-((2,3-dihydroxybenzofuran-4-yl)methoxy)-1^2-nitro-6-oxa-3,11-diaza-2(4,2)-pyrimidina-1(1,4),4(1,3)-dibenzenacyclododecaphan-12-one]
4 | > 10 | > 10 | 1 to 10 | > 10 | Cc1cc2ccc1-c1nc(ncc1C)Nc1ccc(Cl)c(c1)COCCCCNC2=O [Example 35, 1^2,2^5-dimethyl-4^4-chloro-6-oxa-3,11-diaza-2(4,2)-pyrimidina-1(1,4),4(1,3)-dibenzenacyclododecaphan-12-one]
5 | 1 to 10 | 0.101 to 1 | < 0.01 | > 10 | O=C1Nc2ccc(cc2)OCc2cc(ccc2OCC2CC2)Nc2nccc(n2)-c2ccc1cc2[N+](=O)[O-] [Example 206, 4^4-(cyclopropylmethoxy)-1-nitro-6-oxa-3,8-diaza-2(4,2)-pyrimidina-1,7(1,4),4(1,3)-tribenzenacyclo-nonaphane-9-one]
6 | 1 to 10 | 1 to 10 | 0.101 to 1 | > 10 | CC1CCOCc2cc(ccc2OCC2CCOC2)Nc2nccc(n2)-c2ccc(cc2[N+](=O)[O-])C(=O)NC1 (stereo not shown) [Example 166, 9-methyl-1^2-nitro-4^4-((tetrahydro-furan-3-yl)methoxy)-6-oxa-3,11-di-aza-2(4,2)-pyrimidina-1(1,4),4(1,3)-dibenzenacyclododecaphan-12-one]
7 | 1 to 10 | 1 to 10 | 0.101 to 1 | > 10 | O=C1NCCCCOCc2cc(ccc2OCC2CCOC2)Nc2nccc(n2)-c2ccc1cc2[N+](=O)[O-] (stereo not shown) [Example 124, 1^2-nitro-4^4-((tetrahydrofuran-3-yl)methoxy)-6-oxa-3,11-diaza-2(4,2)-pyrimidina-1(1,4),4(1,3)-dibenzena-cyclododecaphan-12-one]
8 | 1 to 10 | 1 to 10 | 0.101 to 1 | > 10 | Cc1ccc2cc1COCCCCNC(=O)c1ccc(c(N)c1)-c1ccnc(n1)N2 [Example 43, 1^2-amino-4^4-methyl-6-oxa-3,11-dia-za-2(4,2)-pyrimidina-1(1,4),4(1,3)-dibenzenacyclododecaphan-12-one]
9 | 1 to 10 | 1 to 10 | 0.101 to 1 | > 10 | O=C1NCCCCOCc2cc(ccc2OC2CCOCC2)Nc2nccc(n2)-c2ccc1cc2[N+](=O)[O-] [Example 61, 1^2-nitro-4^4-(2H-tetrahydropyran-4-oxo)-6-oxa-3,11-diaza-2(4,2)-pyrimi-dina-1(1,4),4(1,3)-dibenzenacyclo-dodecaphan-12-one]
10 | 1 to 10 | > 10 | 1 to 10 | > 10 | O=C1NCCCCOCc2cccc(c2)Nc2nccc(n2)-c2ccc1cc2[N+](=O)[O-] [Example 53, 1^2-nitro-6-oxa-3,11-diaza-2(4,2)-py-rimidina-1(1,4),4(1,3)-dibenzenacyclo-dodecaphan-12-one]
